Our source for the IC50 values is PubChem BioAssay AID611 (The Scripps Research Institute Molecular Screening Center, 2007).

Calls of active or inactive are those of the source.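 How the source made its calls: active means IC50 at or below 10 micromolar, estimated by hand when no curve fit or under half inhibition at top dose; inactive means IC50 above 10 micromolar.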 Some results are limits rather than exact numbers.

In the experiment the target is Steroidogenic factor 1 (Homo sapiens) (UniProt Q13285). Briefly: inhibition of SF-1 LBD-driven luciferase – cell-based, CHO-K1, Gal4-SF-1 LBD, luciferase luminescence, counter-screen for RORA inhibitor project, dose response (AID 611). As to conditions: CHO-K1 Gal4-SF-1 LBD luciferase reporter. On the technique in general: Counterscreens check selectivity or assay interference.
Sequence of Steroidogenic factor 1 (Homo sapiens) (Q13285 whole entry, looked up, the tested form may be a part): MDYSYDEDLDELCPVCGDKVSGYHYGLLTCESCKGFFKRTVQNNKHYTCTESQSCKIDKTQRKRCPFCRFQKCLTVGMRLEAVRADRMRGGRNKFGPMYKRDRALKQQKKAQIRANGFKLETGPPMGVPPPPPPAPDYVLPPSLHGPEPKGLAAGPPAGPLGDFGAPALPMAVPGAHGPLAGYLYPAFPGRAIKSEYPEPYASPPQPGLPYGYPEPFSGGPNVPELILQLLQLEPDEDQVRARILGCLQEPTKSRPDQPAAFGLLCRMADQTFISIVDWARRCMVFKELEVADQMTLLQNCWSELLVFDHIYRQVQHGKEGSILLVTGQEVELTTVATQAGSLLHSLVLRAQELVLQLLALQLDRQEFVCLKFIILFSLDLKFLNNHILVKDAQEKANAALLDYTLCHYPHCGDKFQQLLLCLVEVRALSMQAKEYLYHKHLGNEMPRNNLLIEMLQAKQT
Take `O=C(/C=C\Nc1ccccn1)c1ccc(Cl)cc1`: the IC50 – broadly, the concentration at which inhibition is half-maximal – was 4880 nM.
In the case of `CC(=O)CC1OC(=O)C(Br)=C1NCc1ccccc1` (centres undefined), the IC50 result was “inactive”.
For `Cc1ccc(C(=O)/C=C/Nc2ccccn2)cc1`, the IC50 was 1500 nM.
In the case of `COC(=O)C1=C(CN2CCCc3ccccc32)NC(=O)NC1c1ccc(F)cc1` (centres undefined), the IC50 is 6660 nM.
For `O=C(/C=C\Nc1ccc2c(c1)OCO2)c1ccccn1`, the IC50 was 1500 nM.
The value for `Cn1nc(CC(=O)Nc2ccc(N3CCN(C(=O)OC(C)(C)C)CC3)cc2)c2ccccc2c1=O` was 2550 nM.
As for `COc1cc(/C=N/O)ccc1OCc1ccc(C(=O)O)cc1`, the IC50 is 675 nM.
The value for `O=S(=O)(c1ccc2c(c1)C(=NO)c1cc(S(=O)(=O)N3CCCCC3)ccc1-2)N1CCCCC1` was 2140 nM.
The value for `O=C(O)CCCCCN1C(=O)CSC1=S` was > 99000 nM (inactive).
